Where no end group is shown, it is not given here. [ ]: non-standard residue; d: D form. Phe(4-CN) = N#Cc1ccc(C[C@H](N)C(=O)O)cc1; Met(O2) = CS(=O)(=O)CC[C@H](N)C(=O)O; 2Thi = N[C@@H](Cc1cccs1)C(=O)O; Cha = N[C@@H](CC1CCCCC1)C(=O)O; AllylGly = C=CC[C@H](N)C(=O)O; hCys = N[C@@H](CCS)C(=O)O; hSer = N[C@@H](CCO)C(=O)O; Nle = CCCC[C@H](N)C(=O)O; Nva = CCC[C@H](N)C(=O)O; βAla = NCCC(=O)O
Legend:
[1] = tested on: CaCo2 monolayers; assay: Epithelial flux of Lucifer Yellow through cell monolayer; assay type: cell-based; set-up: key to Enhanced LY permeability: + indicates an enhancement of the permeability of the tight junctions were observed; − indicates no enhancement of permeability was observed; conditions: Lucifer Yellow flux, Caco-2 monolayer
From the text: (§1) Agonists of tight junctions can be identified by their ability to enhance the flux of compounds (e.g. ions, Lucifer Yellow) through a cell monolayer that comprises tight junctions; or by their ability to reduce TEER across a cell monolayer that comprises tight junctions. Treatment of CaCo2 monolayers with peptide FCIGRL (SEQ ID NO: 1) led to a 51-fold enhancement of Lucifer Yellow permeability through CaCo2 monolayers compared to vehicle alone. Treatment of CaCo2 monolayers with peptide FCIGRL led to a 16-fold decrease in TEER across CaCo2 monolayers compared to vehicle alone.
(§2) Determination of TEER and Lucifer Yellow Flux
(§3) Prepare Modified Hank's Balanced Salt Solution (MHBSS) by obtaining 1 L bottle of HBSS removing 10 ml of HBSS and replacing it with 10 ml HEPES buffer pH 7.0. Adjust pH to 7.4±0.1 using concentrated NaOH (10N).
(§4) Remove Caco-2 cells from incubator, grown on 12-well, […], polycarbonate Transwell® filters (Corning) and record passage#, date cells seeded and age in days.
(§5) Aspirate cell culture medium from both the apical (AP) and basolateral (BL) compartments, replacing with 0.5 ml and 1.5 ml of MHBSS, respectively. Incubate cells at 37° C. for 30 minutes.
(§6) Aspirate solution from the apical compartment of each filter (n=3 per condition) and replace with 0.5 ml of control and test solutions containing Lucifer Yellow and test compound if appropriate.
(§7) Place all plates into incubator set at 37° C. (±0.2), 50 RPM (±5) for a total of 180 minutes.
At t=60, 120 and 180 minutes remove 100 μl from each basolateral compartment and place it in a 96-well plate for Lucifer Yellow analysis, replace with 100 μl of MHBSS.
Make a Lucifer Yellow standard curve with the following dilutions (7500 μM, 3750 μM, 750 μM, 375 μM, 75 μM, 37.5 μM, 7.5 μM, 3.75 μM, 0.75 μM) and pipette […] of each into a 96-well plate except for the first three standards mentioned above which require a 1:10 dilutions prior to transferring to the 96-well plate.
Harvest the remaining start solutions and what is left in each apical compartment into 1.5 ml vials. Freeze at −20° C. for future analysis.
Analyze each 96-well plate in a Tecan Spectra Fluor Plus using Magellan at 485 and 535 nm.
(§8) Cells: Caco-2 cells passage 40-60 grown on Transwell® plates for 21-28 days
(§9) Culture Medium: DMEM supplemented with 10% fetal bovine serum, 1% NEAA, 1% Penn/Strep
(§10) Buffers: Hank's Balanced Salt Solution (HBSS) without calcium and magnesium
(§11) Flasks: 100×20 mm Tissue culture dish Falcon.
(§12) Plates: 12 well polycarbonate Transwell® filters; 0.3 uM pore size

[2] = tested on: CaCo2 monolayers; assay: Trans Epithelial Electric Resistance (TEER) across cell monolayer; assay type: cell-based; set-up: key to Reduced TEER: + indicates an enhancement of the permeability of the tight junctions were observed; − indicates no enhancement of permeability was observed; conditions: Caco-2 monolayer
From the text: as §1, §2, §3, §4, §5
Using the MilliCell®-ERS instrument (Millipore), measure and record the transepithelial electrical resistance (TEER) across each filter and record.
as §6, §7
At t=30, 60, 120 and 180 minutes, measure and record the transepithelial electrical resistance (TEER) across each filter using the MilliCell-ERS instrument.
as §8, §9, §10, §11, §12

Substance | Enhanced LY permeability [1] | Reduced TEER [2]
31 ([dF][dC][dI]GR[dL]; not fully specified) [compound 31] | − | −
115 (FSIGRL; also: peptide conjugate) [compound 115] | + | +
148 (Ac-F[hSer]IGRA; also: peptide conjugate) [compound 148] | + | +
136 (FIIGRL; also: peptide conjugate) [compound 136] | + | +
192 (V[AllylGly]IGRL-NH2; N-terminus assumed; SMILES C=CC[C@H](NC(=O)[C@@H](N)C(C)C)C(=O)N[C@H](C(=O)NCC(=O)N[C@@H](CCCNC(=N)N)C(=O)N[C@@H](CC(C)C)C(N)=O)[C@@H](C)CC) [compound 192] | − | −
170 (F[hSer][dI]GR-NH2; also: peptide conjugate) [compound 170] | − | −
114 (FTIGRL; also: peptide conjugate) [compound 114] | + | +
189 (S[AllylGly]IGRL-NH2; N-terminus assumed; SMILES C=CC[C@H](NC(=O)[C@@H](N)CO)C(=O)N[C@H](C(=O)NCC(=O)N[C@@H](CCCNC(=N)N)C(=O)N[C@@H](CC(C)C)C(N)=O)[C@@H](C)CC) [compound 189] | − | −
190 (T[AllylGly]IGRL-NH2; N-terminus assumed; SMILES C=CC[C@H](NC(=O)[C@@H](N)[C@@H](C)O)C(=O)N[C@H](C(=O)NCC(=O)N[C@@H](CCCNC(=N)N)C(=O)N[C@@H](CC(C)C)C(N)=O)[C@@H](C)CC) [compound 190] | − | −
119 (FFIGRL; also: peptide conjugate) [compound 119] | − | +
199 (H[AllylGly]IGRL-NH2; N-terminus assumed; SMILES C=CC[C@H](NC(=O)[C@@H](N)Cc1c[nH]cn1)C(=O)N[C@H](C(=O)NCC(=O)N[C@@H](CCCNC(=N)N)C(=O)N[C@@H](CC(C)C)C(N)=O)[C@@H](C)CC) [compound 199] | − | −
159 (F[L‑(R,S)‑3,4‑cis‑methanoproline]IGRL; not fully specified; also: peptide conjugate) [compound 159] | − | +
121 (FWIGRL; also: peptide conjugate) [compound 121] | + | +
139 (FLIGR-NH2; also: peptide conjugate) [compound 139] | − | −
147 (H-F[Nle]IGRL-OH; not fully specified; printed as H-Phe-Nle-Ile-Gly-Arg-Leu-OH; also: peptide conjugate, Xaa: 'may be' L-norleucine) [compound 147] | − | −
140 (H-F[2Thi]IGRL-OH; SMILES CC[C@H](C)[C@H](NC(=O)[C@H](Cc1cccs1)NC(=O)[C@@H](N)Cc1ccccc1)C(=O)NCC(=O)N[C@@H](CCCNC(=N)N)C(=O)N[C@@H](CC(C)C)C(=O)O) [compound 140] | − | −
146 (H-F[Nva]IGRL-OH; not fully specified; printed as H-Phe-Nva-Ile-Gly-Arg-Leu-OH; also: peptide conjugate, Xaa: 'may be' norvaline) [compound 146] | − | −
169 (Ac-F[hSer]IGR-NH2; also: peptide conjugate) [compound 169] | − | −

Substance | Enhanced LY permeability [1] | Reduced TEER [2]
173 ([Phe(4-CN)]FIGRL; also: peptide conjugate, Xaa: 'may be' L-4-cyano-phenylalanine) [compound 173] | − | −
144 (H-F[Met(O2)]IGRL-OH; not fully specified; also: peptide conjugate, Xaa: 'may be' L-methionine-sulfone) [compound 144] | − | −
155 (F[dV]IGRL-OH; also: peptide conjugate) [compound 155] | − | −
198 (A[AllylGly]IGRL-NH2; N-terminus assumed; SMILES C=CC[C@H](NC(=O)[C@H](C)N)C(=O)N[C@H](C(=O)NCC(=O)N[C@@H](CCCNC(=N)N)C(=O)N[C@@H](CC(C)C)C(N)=O)[C@@H](C)CC) [compound 198] | − | −
220 (F[AllylGly]ITRL-NH2; N-terminus assumed; SMILES C=CC[C@H](NC(=O)[C@@H](N)Cc1ccccc1)C(=O)N[C@H](C(=O)N[C@H](C(=O)N[C@@H](CCCNC(=N)N)C(=O)N[C@@H](CC(C)C)C(N)=O)[C@@H](C)O)[C@@H](C)CC) [compound 220] | − | −
162 (F[hCys]IGRL; also: peptide conjugate, Xaa: 'may be' homocysteine) [compound 162] | + | +
75 (Ac-ACIGRL; not fully specified; printed as Ac-Ala-Cys-Ile-Gly-Arg-Leu) [compound 75] | + | +
187 (Q[AllylGly]IGRL-NH2; N-terminus assumed; SMILES C=CC[C@H](NC(=O)[C@@H](N)CCC(N)=O)C(=O)N[C@H](C(=O)NCC(=O)N[C@@H](CCCNC(=N)N)C(=O)N[C@@H](CC(C)C)C(N)=O)[C@@H](C)CC) [compound 187] | − | −
96 (H-FCIGR[βAla]-OH; SMILES CC[C@H](C)[C@H](NC(=O)[C@H](CS)NC(=O)[C@@H](N)Cc1ccccc1)C(=O)NCC(=O)N[C@@H](CCCNC(=N)N)C(=O)NCCC(=O)O) [compound 96] | + | +
51 (H-[dA]CIGRG-OH; not fully specified) [compound 51] | + | +
200 (P[AllylGly]IGRL-NH2; N-terminus assumed; SMILES C=CC[C@H](NC(=O)[C@@H]1CCCN1)C(=O)N[C@H](C(=O)NCC(=O)N[C@@H](CCCNC(=N)N)C(=O)N[C@@H](CC(C)C)C(N)=O)[C@@H](C)CC) [compound 200] | − | −
150 (Ac-F[hSer]IGRF; also: peptide conjugate) [compound 150] | + | +
156 (F[Cha]IGRL-OH; also: peptide conjugate) [compound 156] | − | −
151 (F[hSer]IGRF; also: peptide conjugate, Xaa: 'may be' homoserine) [compound 151] | − | −
204 (F[AllylGly]FGRL-NH2; N-terminus assumed; SMILES C=CC[C@H](NC(=O)[C@@H](N)Cc1ccccc1)C(=O)N[C@@H](Cc1ccccc1)C(=O)NCC(=O)N[C@@H](CCCNC(=N)N)C(=O)N[C@@H](CC(C)C)C(N)=O) [compound 204] | + | =
197 (K[AllylGly]IGRL-NH2; N-terminus assumed; SMILES C=CC[C@H](NC(=O)[C@@H](N)CCCCN)C(=O)N[C@H](C(=O)NCC(=O)N[C@@H](CCCNC(=N)N)C(=O)N[C@@H](CC(C)C)C(N)=O)[C@@H](C)CC) [compound 197] | − | −
63 (H-FCIGRF-OH; not fully specified) [compound 63] | + | +

Source: patent publication US20120027720A1, “PEPTIDE CONJUGATES” (priority 2008, published 2012)
